The subject of one test is PDH phosphatase. Put plainly: PDH phosphatase activation assay. The settings on record: 100µM. In kind it is biochemical. The source says: (§1) Methods for obtaining A-type and P-type mediators are set out in Caro et al, 1997, and in WO98/11116 and WO98/11117. Protocols for determining characteristic IPG biological activities such as PDH activation, PKA inhibition, acetylCoA activation, fructose-1,6-bis-phosphatase activity and lipogenesis are well known in the art, e.g. as described in Caro et al^[14].
(§2) The compounds of the invention can be tested for one or more the characteristic IPG-P and/or IPG-A activities mentioned above to determine whether they will be suitable for use a IPG mimetics or antagonists. Preferred assays measure the effect of the compounds on PDH phosphatase, PKA or lipogenesis. Protocols for these assays are provided in Caro et al ^[14]. The compounds can also be tested to determine whether they activate or inhibit other enzymes involved in insulin signalling mechanism, such as glucose-6-phosphatase.
In particular, preferred compounds having 1,6 linkages are good activators of PDH phosphatase activity.

A further test deals with PKA. Nature of the test: PKA inhibition assay. It counts as biochemical.
Source text: as §1, §2

Molecules are shown by their SMILES.

Take `CO[C@H]1[C@H](O)[C@@H](O)[C@@H](O[C@@H]2O[C@H](CO)[C@@H](O)[C@H](O)[C@H]2N)[C@H](O)[C@@H]1O` [RGL1015, O-(2-amino-2-deoxy-D-glucopyranosyl)-β(1,6)-D-3-O-methyl-chiro-inositol.]: the PDH % activation with PDH phosphatase is 38%. In addition, the PKA % inhibition worked out at 14% with PKA (0.1µM) and 15% with PKA (1µM).

For the molecule `CO[C@H]1[C@H](O)[C@@H](O)[C@@H](O[C@H]2O[C@H](CO)[C@@H](O)[C@H](O)[C@H]2N)[C@H](O)[C@@H]1O` [RGL1024, O-(2-amino-2-deoxy-D-glucopyranosyl)-α(1,6)-D-3-O-methyl-chiro-inositol.], the PDH % activation in the test with PDH phosphatase was 65%. Moreover, the values for the PKA % inhibition with PKA (0.1µM), with PKA (1µM) and in the test with PKA (10µM) were 17%, 34% and 2%, respectively.

`CO[C@H]1[C@H](O)[C@@H](O)[C@@H](O[C@H]2O[C@H](CO)[C@H](O)[C@H](O)[C@H]2N)[C@H](O)[C@@H]1O` [RGL1025, O-(2-amino-2deoxy-D-galactopyranosyl)-α(1,6)-D-3-O-methyl-chiro-inositol.] gave a PDH % activation in the test with PDH phosphatase of 17%. The PKA % inhibition with PKA (0.1µM) is on record as 48%; in the test on PKA (1µM) it was -13%.

(Values after EP1409500B1, “ALKYLATED INOSITOLGLYCANS AND THEIR USES” (Rodaris Pharmaceuticals Limited, priority 2000, dated 2001).)
